Assay [1] relates to Guinea Pig Tracheal Chain. As to the kind of experiment: Estimation of pA2 values in guinea pig tracheal chain (contractile agonist U-44069). Also noted: species or system guinea pigs. The following applies: for pA2 / Kb: guinea pig tracheal chain, antagonism of U-44069 contraction, logarithmic scale; for Kb: Cavia porcellus; for prostanoid antagonist activity (statement in words): Table 4 data (platelet aggregation and pA2). An excerpt:
Estimation of pA2 Values in Guinea Pig Tracheal Chain
Male albino Hartley strain guinea pigs (300-350 gm) were sacrificed by a blow to the head and exsanguinated. The trachea was removed, freed of extraneous tissue and sectioned into rings of 1-2 mm thickness. Five rings were tied together in series, ensuring that the tracheal muscle lay in the same vertical plane, and the cartilage of each ring then separated at a point directly opposite the muscle. The chains were suspended under 1 gm resting tension in modified Krebs solution (NaCl, 6.87; NaHCO3, 2.1; dextrose, 2.1; KC1, 0.32; CaCl2, 0.28; MgSO4, 7H 0, 0.11; KH2PO4, 0.16; gm/L: equilibrated with 5% C02 in O2 for 1 hour) containing indomethacin (1.4 x 10^-5M) to suppress endogenous protaglandin synthesis, Organ bath temperature was maintained at 37°C and 5% C02 in 02 diffused continously. Isometric tension changes were recorded from a Gould-Statham (UTC 2) force displacement transducer connected to a Beckman Type R Dynograph. For assay purposes initial maximal contractions were elicited with a high concentration of the contractile agonist [U-44069, 9.11-dideoxy-9α,11α-epoxymethano PGF2α] and the tissue subsequently washed at intervals until tension returned to baseline. Agonist dose response curves were obtained using a cumulative-dose schedule (4-8 doses) and the preparations then washed at regular intervals until baseline tension was recorded. After an appropriate interval (1-1.5 hrs) agonist dose response curves were repeated in the presence of antagonist drug concentrations. […] EC50 values were obtained by regression analysis and used to calculate 'apparent' and Schild Plot pA2 values by the method of Tallarida and Murray 1981.

A further assay deals with T1, Human Platelets (Homo sapiens, UniProt P21731).
T1 sequence (P21731 1-343): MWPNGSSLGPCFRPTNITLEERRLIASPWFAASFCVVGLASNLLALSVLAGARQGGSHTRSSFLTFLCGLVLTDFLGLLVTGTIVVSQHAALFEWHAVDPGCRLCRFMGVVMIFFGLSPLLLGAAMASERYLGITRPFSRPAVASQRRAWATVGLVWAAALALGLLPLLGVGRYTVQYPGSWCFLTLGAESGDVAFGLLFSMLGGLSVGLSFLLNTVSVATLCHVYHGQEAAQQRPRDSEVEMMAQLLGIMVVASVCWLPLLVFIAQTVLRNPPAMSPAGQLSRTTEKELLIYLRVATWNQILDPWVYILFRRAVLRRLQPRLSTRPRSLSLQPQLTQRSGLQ
As to the kind of experiment: Inhibition of induced threshold aggregation of human platelets (aggregating agent U44069, platelet rich plasma). The class given is cell-based. The following applies: for IC50: human platelet rich plasma, threshold aggregation induced by U44069, read-out: Inhibition of platelet aggregation (IC50 in µg/ml) (converted). How it is done:
Inhibition of Induced Threshold Aggregation of Human
Human platelet rich plasma (PRP) is prepared from venous blood of male volunteers who have taken no medication for ten days prior to test. […] The supernatant (PRP) is transferred into plastic tubes. Platelet poor plasma (PPP) is obtained by centrifuging the residual blood cells at 4000 g for ten minutes. PRP is left to stand at least one half hour prior to testing.
Platelet Aggregation is measured using a Payton Aggregometer and Recorder. […] Drug vehicle (control), or a drug concentration is then added in a volume of 0.5 microliter. After one minute, the aggregating agent (U44069, 9,11-dideoxy-9α,11α-epoxymethano PGF 2a ) is added to the cuvette in a volume of 25 microliters. Recording is continued until the maximal response is obtained.
The threshold (approximately 20 - 30% of maximum) aggregation concentration of the agonist to be used is first determined in the presence of the drug vehicle (control). […] All drugs are dissolved in dimethylsulfoxide.
The height of the aggregation response (measured in divisions of the recorder paper, 1 division × 2.5 mm) in the presence of the drug is recorded, and calculated as percent inhibition of the mean height of the control threshold responses.

Consider `O=C(O)CC1CCCc2c1n(Cc1ccc(Cl)cc1)c1ccc(F)cc21` (single isomer, unassigned; (-)) [Compound 3, (-)9-p-chlorobenzyl-6-fluoro-1,2,3,4-tetrahydro-carbazol-1-yl-acetic acid], for which the pA2 (usually a measure of antagonist potency on a negative log scale) in assay [1] is reported as 8.0. Besides, the IC50 on Human Platelets is 134 nM.

Consider `COc1ccc2c(c1)c1c(n2Cc2ccc(Cl)cc2)CC(C(=O)O)CC1` (stereo not drawn) [B], for which, in assay [1], the Kb (in general, the equilibrium dissociation constant of an antagonist, usually derived from a functional assay) was more than 1000 nM and the “prostanoid antagonist activity (statement in words)” value (“prostanoid antagonist activity” below) is reported as “no significant activity”. In addition, the IC50 on Human Platelets was more than 81100 nM.

Turning to `COc1ccc2c(c1)c1cccc(CC(=O)O)c1n2Cc1ccc(Cl)cc1` [C], in assay [1], the Kb was 263 nM and the “prostanoid antagonist activity” value is “does not possess any significant activity”. The IC50 at Human Platelets is more than 79000 nM.

In the case of `O=C(O)CC1CCCc2c1n(Cc1ccc(Cl)cc1)c1ccc(F)cc21` (stereo not drawn) [Compound 1, 9-p-chlorobenzyl-6-fluoro-1,2,3,4-tetrahydrocarbazol-1-yl-acetic acid], the pA2 in assay [1] was 8.6. In addition, the IC50 on Human Platelets is 80.7 nM.

Turning to `COc1ccc2c(c1)c1c(n2Cc2ccc(Cl)cc2)C(CC(=O)O)CCC1` (stereo not drawn) [Compound 2, 9-p-chlorobenzyl-6-methoxy-1,2,3,4-tetrahydrocarbazol-1-yl-acetic acid], in assay [1], the Kb is 3.98 nM. Besides, on Human Platelets, the IC50 is 782 nM.

In the case of `COc1ccc(Cn2c3c(c4cc(F)ccc42)CCCC3CC(=O)O)cc1` (stereo not drawn) [Compound 6, 9-p-methoxybenzyl-6-fluoro-1,2,3,4-tetrahydrocarbazol-1-yl-acetic acid], the Kb in assay [1] is 2 nM. The IC50 on Human Platelets is 408 nM.

For `O=C(O)CC1CCCc2c1n(Cc1ccc(Cl)c(Cl)c1)c1ccc(F)cc21` (stereo not drawn) [Compound 7, 9-(3,4-dichloro)benzyl-6-fluoro-1,2,3,4-tetrahydro-carbazol-1-yl-acetic acid], in assay [1], the Kb was 5.01 nM. The IC50 at Human Platelets was 222 nM.

For the compound `CC(c1ccccc1)n1c2c(c3cc(F)ccc31)CCCC2CC(=O)O` (stereo not drawn) [Compound 8, 9-[1-(1-phenyl)ethyl]-6-fluoro-1,2,3,4-tetrahydro-carbazol-1-yl-acetic acid], the Kb in assay [1] is more than 1000 nM. Besides, at Human Platelets, the IC50 was 256 nM.

Consider `O=C(O)CC1CCCc2c1n(Cc1ccc(Cl)cc1)c1ccccc21` (stereo not drawn) [Compound 9, 9-p-chlorobenzyl-1,2,3,4-tetrahydrocarbazol-1-yl-acetic acid], for which the antagonist dissociation constant (Kb) in assay [1] is 1.26 nM. For the same compound, the IC50 at Human Platelets was 141 nM.

For `O=C(O)CC1CCCc2c1n(Cc1ccc(Cl)cc1)c1ccc(Cl)cc21` (stereo not drawn) [Compound 10, 9-p-chlcrobenzyl-6-chloro-1,2,3,4-tetrahydrocarbazol-1-yl-acetic acid], the Kb in assay [1] was 10 nM. On Human Platelets, the IC50 is 258 nM.

In the case of `Cc1cccc2c3c(n(Cc4ccc(Cl)cc4)c12)C(CC(=O)O)CCC3` (stereo not drawn) [Compound 11, 9-p-chlorobenzyl-8-methyl-l,2,3,4-tetrahydrocarbazol-1-yl-acetic acid], the antagonist equilibrium constant (Kb) in assay [1] is 0.316 nM. The IC50 at Human Platelets was 272 nM.

As for `O=C(O)CC1CCCc2c1n(Cc1ccc(Cl)cc1)c1ccc(Br)cc21` (stereo not drawn) [Compound 12, 6-bromo-9-p-chlorobenzyl-l,2,3,4-tetrahydrocarbazol-l-yl-acetic acid], in assay [1], the Kb is 12.6 nM. Further, the IC50 at Human Platelets is 208 nM.

`Cc1ccc2c(c1)c1c(n2Cc2ccc(Cl)cc2)C(CC(=O)O)CCC1` (stereo not drawn) [Compound 13, 9-p-chlorobenzyl-6-methyl-1,2,3,4-tetrahydrocarbazol-1-yl-acetic acid]: the Kb in assay [1] was 25.1 nM. Moreover, on Human Platelets, the IC50 is 217 nM.

Regarding `O=C(O)CC1CCCc2c1n(Cc1ccc(Cl)cc1)c1c(F)cccc21` (stereo not drawn) [Compound 14, 9-p-chlorobenzyl-8 fluoro-1,2,3,4-tetrahydrocarbazol-1-yl-acetic acid], the Kb in assay [1] is 0.398 nM. Moreover, at Human Platelets, the IC50 was 215 nM.

Regarding `O=C(O)CC1CCCc2c1n(Cc1ccc(Cl)cc1)c1cccc(F)c21` (stereo not drawn) [Compound 16, 9-p-chlorobenzyl-5-fluoro-1,2,3,4-tetrahydrocarbazol-1-yl-acetic acid], the Kb in assay [1] was 1.26 nM. Besides, the IC50 at Human Platelets is 457 nM.

As for `O=C(O)CC1CCCc2c1n(Cc1ccc(Cl)cc1)c1c(Cl)cc(Cl)cc21` (stereo not drawn) [Compound 19, 9-p-chlorobenzyl-6,8-dichloro-1,2,3,4-tetrahydro-carbazol-1-yl-acetic acid], the Kb in assay [1] is 63.1 nM. Further, the IC50 on Human Platelets was 166 nM.

Consider `CC(C(=O)O)C1CCCc2c1n(Cc1ccc(Cl)cc1)c1ccc(F)cc21` (stereo not drawn) [Compound 20, 2-[9-p-chlorobenzyl-6-fluoro-1,2,3,4-tetrahydro-carbazol-1-yl-]propanoic acid], for which the Kb in assay [1] is 158 nM. The IC50 on Human Platelets was 803 nM.

Consider `COc1ccc2c(c1)c1c(n2Cc2ccc(Cl)cc2)CC(CC(=O)O)CC1` (stereo not drawn) [Compound A, reference compound], for which, in assay [1], the Kb is 158 nM. The “pA2 is a factor less than that of compound 2” value in assay [1] (compared with compound 2, printed as antilog of 1.6) is 14. The “times less potent as an inhibitor of platelet aggregation” value on Human Platelets (compared with compound 2) was approximately 12. The IC50 at Human Platelets is 9120 nM.

For `O=C(O)CC1CCCc2c1[nH]c1ccc(F)cc21` (stereo not drawn) [Compound F, 6-fluoro-1,2,3,4-tetrahydrocarbazol-1-yl-acetic acid], in assay [1], the antagonist equilibrium constant (Kb) was more than 1000 nM and the “prostanoid antagonist activity” value is “severe loss of activity”. On Human Platelets, the IC50 is 13800 nM.

For `O=C(O)CC1CCCc2c1n(CCc1ccc(Cl)cc1)c1ccc(F)cc21` (stereo not drawn) [Compound H, 9-[1-(2-p-chlorophenyl)ethyl]-6-fluoro-1,2,3,4-tetra-hydrocarbazol-1-yl-acetic acid], in assay [1], the Kb is 158 nM and the “prostanoid antagonist activity” value is given as “serious loss of activity”. In addition, the IC50 on Human Platelets is 35200 nM.

With `COc1ccc2c(c1)c1c(n2Cc2ccc(Cl)cc2)CCCC1C(=O)O` (stereo not drawn) [D], in assay [1], the antagonist dissociation constant (Kb) is more than 1000 nM and the “prostanoid antagonist activity” value is given as “severe loss of activity”.

For the compound `COc1ccc2c(c1)c1c(n2Cc2ccc(Cl)cc2)C(C(=O)O)CCC1` (stereo not drawn) [E], in assay [1], the Kb was 219 nM and the “prostanoid antagonist activity” value is “severe loss of activity”. Also, on Human Platelets, the IC50 is 11400 nM.

For `CC(C)n1c2c(c3cc(F)ccc31)CCCC2CC(=O)O` (stereo not drawn) [G, 6-fluoro-9-isopropyl-1,2,3,4-tetrahydrocarbazol-1-yl-acetic acid], in assay [1], the Kb is more than 1000 nM and the “prostanoid antagonist activity” value is on record as “almost completely lost activity”. The IC50 on Human Platelets is 47000 nM.

The values are drawn from patent EP0234708A1, “Tetrahydrocarbazole 1-alkanoic acids” (MERCK FROSST CANADA INC., priority 1986, dated 1987).
